Test results reported in patent US10568876B2, “Tetrahydroisoquinoline derivatives useful as inhibitors of diacylglyceride O-acyltransferase 2” (Merck Sharp & Dohme Corp., priority 2014, dated 2020).
pIC50: −log10 of the molar value.

target: hDGAT2 (Homo sapiens (Human), UniProt Q96PD7); assay: DGAT2 Enzymatic Activity Assay; format: biochemical; settings: hDGAT2 Sf-9 membrane prep; 25 μM diolein, 10 μM oleoyl-CoA; triolein product by LC/MS/MS; read-out: IC50 values for inhibition of DGAT2
Outline: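 Membranes from Sf-9 cells expressing untagged hDGAT2 (10 ng/μL) incubated at room temperature with 25 μM diolein and 10 μM oleoyl-CoA in 100 mM Tris pH 7.0, 20 mM MgCl2, 5% ethanol. Triolein product quantified by LC/MS/MS against spiked internal standard; IC50 from 4-parameter sigmoidal fit.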

Sequence of hDGAT2 (Q96PD7 whole entry): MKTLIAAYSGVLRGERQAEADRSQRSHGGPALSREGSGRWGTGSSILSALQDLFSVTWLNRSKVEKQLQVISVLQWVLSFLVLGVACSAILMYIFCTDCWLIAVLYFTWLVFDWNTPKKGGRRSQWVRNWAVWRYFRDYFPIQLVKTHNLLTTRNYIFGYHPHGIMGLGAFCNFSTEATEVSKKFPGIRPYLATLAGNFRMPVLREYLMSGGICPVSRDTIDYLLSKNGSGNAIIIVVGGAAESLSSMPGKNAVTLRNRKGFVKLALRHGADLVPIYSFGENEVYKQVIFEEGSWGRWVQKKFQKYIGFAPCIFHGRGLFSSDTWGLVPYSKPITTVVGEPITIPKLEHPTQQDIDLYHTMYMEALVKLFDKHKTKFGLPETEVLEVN

Row | Compound | pIC50
1 | Cc1noc(C2CC2C(=O)NCc2ccc(-c3cccc(OC(F)(F)F)c3)c3c2CN(C(=O)NC2(C)CCS(=O)(=O)C2)CC3)n1 (stereo not drawn) [Example 58, N-(3-methyl-1,1-dioxidotetrahydrothiophen-3-yl)-8-((2-(3-methyl-1,2,4-oxadiazol-5-yl)cyclopropanecarboxamido)methyl)-5-(3-(trifluoromethoxy)phenyl)-3,4-dihydroisoquinoline-2(1H)-carboxamide] | 7.62
2 | Cc1noc(C2CC2C(=O)NCc2ccc(-c3cccc(OC(F)(F)F)c3)c3c2CN(C(=O)NC2CCS(=O)(=O)C2)CC3)n1 (stereo not drawn) [Example 60, N-(1,1-dioxidotetrahydrothiophen-3-yl)-8-((2-(3-methyl-1,2,4-oxadiazol-5-yl)cyclopropanecarboxamido)methyl)-5-(3-(trifluoromethoxy)phenyl)-3,4-dihydroisoquinoline-2(1H)-carboxamide] | 6.33
3 | COC(=O)C1CCN(C(=O)N2CCc3c(-c4cccc(OC)c4)ccc(CNC(=O)[C@@H]4C[C@H]4c4ccccc4)c3C2)CC1 [Example 63, methyl 1-(5-(3-methoxyphenyl)-8-(((trans)-2-phenylcyclopropanrcarboxamido)methyl)-1,2,3,4-tetrahydroisoquinoline-2-carbonyl)piperidine-4-carboxylate] | 5.51
4 | Cc1noc(C2CC2C(=O)NCc2ccc(-c3cccc(OC(F)(F)F)c3)c3c2CN(C(=O)NC2CCS(=O)(=O)C2)CC3)n1 (stereo not drawn) [Example 76, N-(1,1-dioxidotetrahydrothiophen-3-yl)-8-((2-(3-methyl-1,2,4-oxadiazol-5-yl)cyclopropanecarboxamido)methyl)-5-(3-(trifluoromethoxy)phenyl)-3,4-dihydroisoquinoline-2(1H)-carboxamide] | 6.62
5 | Cc1noc(C2CC2C(=O)NCc2ccc(-c3cccc(OC(F)(F)F)c3)c3c2CN(C(=O)NC2CCS(=O)(=O)C2)CC3)n1 (stereo not drawn) [Example 78, N-(1,1-dioxidotetrahydrothiophen-3-yl)-8-((2-(3-methyl-1,2,4-oxadiazol-5-yl)cyclopropanecarboxamido)methyl)-5-(3-(trifluoromethoxy)phenyl)-3,4-dihydroisoquinoline-2(1H)-carboxamide] | 6.05
6 | Cc1noc(C2CC2C(=O)NCc2ccc(-c3cccc(-n4cccn4)c3)c3c2CN(C(=O)N[C@@]2(C)CCS(=O)(=O)C2)CC3)n1 (stereo partly drawn) [Example 79, 5-(3-(1H-pyrazol-1-yl)phenyl)-N-((S)-3-methyl-1,1-dioxidotetrahydrothiophen-3-yl)-8-((2-(3-methyl-1,2,4-oxadiazol-5-yl)cyclopropanecarboxamido)methyl)-3,4-dihydroisoquinoline-2(1H)-carboxamide] | 7.01
7 | Cc1noc(C2CC2C(=O)NCc2ccc(-c3cccc(OC(F)(F)F)c3)c3c2CN(CC(=O)NC(C)(C)C)CC3)n1 (stereo not drawn) [Example 80, N-((2-(2-(tert-butylamino)-2-oxoethyl)-5-(3-(trifluoromethoxy)phenyl)-1,2,3,4-tetrahydroisoquinolin-8-yl)methyl)-2-(3-methyl-1,2,4-oxadiazol-5-yl)cyclopropanecarboxamide] | 6.32
8 | CCN(CC)C(=O)CN1CCc2c(-c3cccc(OC(F)(F)F)c3)ccc(CNC(=O)C3CC3c3nc(C)no3)c2C1 (stereo not drawn) [Example 81, N-((2-(2-(diethylamino)-2-oxoethyl)-5-(3-(trifluoromethoxy)phenyl)-1,2,3,4-tetrahydroisoquinolin-8-yl)methyl)-2-(3-methyl-1,2,4-oxadiazol-5-yl)cyclopropanecarboxamide] | 6.18
9 | Cc1noc(C2CC2C(=O)NCc2ccc(-c3cccc(OC(F)(F)F)c3)c3c2CN(CC(=O)NC2CC2)CC3)n1 (stereo not drawn) [Example 82, N-((2-(2-(cyclopropylamino)-2-oxoethyl)-5-(3-(trifluoromethoxy)phenyl)-1,2,3,4-tetrahydroisoquinolin-8-yl)methyl)-2-(3-methyl-1,2,4-oxadiazol-5-yl)cyclopropanecarboxamide] | 6.14
10 | Cc1noc(C2CC2C(=O)NCc2ccc(-c3cccc(OC(F)(F)F)c3)c3c2CN(CC(N)=O)CC3)n1 (stereo not drawn) [Example 83, N-((2-(2-amino-2-oxoethyl)-5-(3-(trifluoromethoxy)phenyl)-1,2,3,4-tetrahydroisoquinolin-8-yl)methyl)-2-(3-methyl-1,2,4-oxadiazol-5-yl)cyclopropanecarboxamide] | 5.91
11 | COc1ccc(CNC(=O)CN2CCc3c(-c4cccc(OC(F)(F)F)c4)ccc(CNC(=O)C4CC4c4nc(C)no4)c3C2)c(OC)c1 (stereo not drawn) [Example 85, N-((2-(2-((2,4-dimethoxybenzyl)amino)-2-oxoethyl)-5-(3-(trifluoromethoxy)phenyl)-1,2,3,4-tetrahydroisoquinolin-8-yl)methyl)-2-(3-methyl-1,2,4-oxadiazol-5-yl)cyclopropanecarboxamide] | 5.81
12 | Cc1noc(C2CC2C(=O)NCc2ccc(-c3cccc(OC(F)(F)F)c3)c3c2CN(CC(=O)NC2CCC2)CC3)n1 (stereo not drawn) [Example 87, N-((2-(2-(cyclobutylamino)-2-oxoethyl)-5-(3-(trifluoromethoxy)phenyl)-1,2,3,4-tetrahydroisoquinolin-8-yl)methyl)-2-(3-methyl-1,2,4-oxadiazol-5-yl)cyclopropanecarboxamide] | 5.38
13 | Cc1noc(C2CC2C(=O)NCc2ccc(-c3cccc(OC(F)(F)F)c3)c3c2CN(CC(=O)N[C@H](C)c2ccccc2)CC3)n1 (stereo partly drawn) [Example 88, 2-(3-methyl-1,2,4-oxadiazol-5-yl)-N-((2-(2-oxo-2-(((trans)-1-phenylethyl)amino)ethyl)-5-(3-(trifluoromethoxy)phenyl)-1,2,3,4-tetrahydroisoquinolin-8-yl)methyl)cyclopropanecarboxamide] | 5.12
14 | CCn1ccnc1CN1CCc2c(-c3cccc(OC(F)(F)F)c3)ccc(CNC(=O)C3C[C@H]3c3nc(C)no3)c2C1 (stereo partly drawn) [Example 102] | 6.34
15 | Cc1noc([C@@H]2CC2C(=O)NCc2ccc(-c3cccc(OC(F)(F)F)c3)c3c2CN(CC(=O)N2[C@H](C)COC[C@H]2C)CC3)n1 (stereo partly drawn) [Example 108, (trans)-N-((2-(2-((3R,5R)-3,5-dimethylmorpholino)-2-oxoethyl)-5-(3-(trifluoromethoxy)phenyl)-1,2,3,4-tetrahydroisoquinolin-8-yl)methyl)-2-(3-methyl-1,2,4-oxadiazol-5-yl)cyclopropanecarboxamide] | 5.13
16 | COc1cccc(-c2ccc(CNC(=O)[C@@H]3C[C@H]3c3ccccc3)c3c2CCN(C(=O)C(CO)C(F)(F)F)C3)c1 (stereo partly drawn) [Example 118] | 5.88

Other lines, results leading:

Row | pIC50 | Compound
17 | 5.56 | COc1cccc(-c2ccc(CNC(=O)C3CC3c3ccccc3)c3c2CCN(S(C)(=O)=O)C3)c1 (stereo not drawn) [Example 89, N-((5-(3-methoxyphenyl)-2-(methylsulfonyl)-1,2,3,4-tetrahydroisoquinolin-8-yl)methyl)-2-phenylcyclopropanecarboxamide]
18 | 5.31 | COc1cccc(-c2ccc(CNC(=O)C3CC3c3ccccc3)c3c2CCN(Cc2ccccc2)C3)c1 (stereo not drawn) [Example 90, N-((2-benzyl-5-(3-methoxyphenyl)-1,2,3,4-tetrahydroisoquinolin-8-yl)methyl)-2-phenylcyclopropanecarboxamide]
19 | 5.92 | COc1cccc(-c2ccc(CNC(=O)C3CC3c3ccccc3)c3c2CCN(CC(F)(F)F)C3)c1 (stereo not drawn) [Example 93, N-((5-(3-methoxyphenyl)-2-(2,2,2-trifluoroethyl)-1,2,3,4-tetrahydroisoquinolin-8-yl)methyl)-2-phenylcyclopropanecarboxamide]
20 | 6.61 | COC(=O)c1cccc(-c2ccc(CNC(=O)C3CC3c3ccccc3)c3c2CCN(Cc2ccccn2)C3)c1 (stereo not drawn) [Example 94, methyl 3-(8-((2-phenylcyclopropanecarboxamido)methyl)-2-(pyridin-2-ylmethyl)-1,2,3,4-tetrahydroisoquinolin-5-yl)benzoate]
21 | 5.42 | COC(=O)c1cccc(-c2ccc(CNC(=O)C3CC3c3ccccc3)c3c2CCN(Cc2ncn(C)c2C)C3)c1 (stereo not drawn) [Example 95, methyl 3-(2-((1,5-dimethyl-1H-imidazol-4-yl)methyl)-8-((2-phenylcyclopropanecarboxamido)methyl)-1,2,3,4-tetrahydroisoquinolin-5-yl)benzoate]
22 | 5.57 | COC(=O)c1cccc(-c2ccc(CNC(=O)C3CC3c3ccccc3)c3c2CCN(Cc2ccc(F)cc2)C3)c1 (stereo not drawn) [Example 98, methyl 3-(2-(4-fluorobenzyl)-8-((2-phenylcyclopropanecarboxamido)methyl)-1,2,3,4-tetrahydroisoquinolin-5-yl)benzoate]
23 | 5.41 | COC(=O)c1cccc(-c2ccc(CNC(=O)C3CC3c3ccccc3)c3c2CCN(Cc2cccnc2)C3)c1 (stereo not drawn) [Example 99, methyl 3-(8-((2-phenylcyclopropanecarboxamido)methyl)-2-(pyridin-3-ylmethyl)-1,2,3,4-tetrahydroisoquinolin-5-yl)benzoate]
24 | 5.46 | COC(=O)c1cccc(-c2ccc(CNC(=O)C3CC3c3ccccc3)c3c2CCN(CCC(F)(F)F)C3)c1 (stereo not drawn) [Example 100, methyl 3-(8-((2-phenylcyclopropanecarboxamido)methyl)-2-(3,3,3-trifluoropropyl)-1,2,3,4-tetrahydroisoquinolin-5-yl)benzoate]
25 | 5.49 | COc1cccc(-c2ccc(CNC(=O)C3CC3c3ccccc3)c3c2CCN(c2ncccn2)C3)c1 (stereo not drawn) [Example 110, N-((5-(3-methoxyphenyl)-2-(pyrimidin-2-yl)-1,2,3,4-tetrahydroisoquinolin-8-yl)methyl)-2-phenylcyclopropanecarboxamide]
26 | 5.53 | COC(=O)c1cccc(-c2ccc(CNC(=O)C3CC3c3ccccc3)c3c2CCN(C(=O)Cc2ccccc2)C3)c1 (stereo not drawn) [Example 112, methyl 3-(2-(2-phenylacetyl)-8-((2-phenylcyclopropanecarboxamido)methyl)-1,2,3,4-tetrahydroisoquinolin-5-yl)benzoate]
27 | 6.15 | COc1cccc(-c2ccc(CNC(=O)C3CC3c3ccccc3)c3c2CCN(C(=O)CC(C)(C)C)C3)c1 (stereo not drawn) [Example 114, N-((2-(3,3-dimethylbutanoyl)-5-(3-methoxyphenyl)-1,2,3,4-tetrahydroisoquinolin-8-yl)methyl)-2-phenylcyclopropanecarboxamide]
